This assay concerns the target T1, 5-Lipoxygenase (Rattus norvegicus, UniProt P12527).
T1 sequence (P12527 1-673): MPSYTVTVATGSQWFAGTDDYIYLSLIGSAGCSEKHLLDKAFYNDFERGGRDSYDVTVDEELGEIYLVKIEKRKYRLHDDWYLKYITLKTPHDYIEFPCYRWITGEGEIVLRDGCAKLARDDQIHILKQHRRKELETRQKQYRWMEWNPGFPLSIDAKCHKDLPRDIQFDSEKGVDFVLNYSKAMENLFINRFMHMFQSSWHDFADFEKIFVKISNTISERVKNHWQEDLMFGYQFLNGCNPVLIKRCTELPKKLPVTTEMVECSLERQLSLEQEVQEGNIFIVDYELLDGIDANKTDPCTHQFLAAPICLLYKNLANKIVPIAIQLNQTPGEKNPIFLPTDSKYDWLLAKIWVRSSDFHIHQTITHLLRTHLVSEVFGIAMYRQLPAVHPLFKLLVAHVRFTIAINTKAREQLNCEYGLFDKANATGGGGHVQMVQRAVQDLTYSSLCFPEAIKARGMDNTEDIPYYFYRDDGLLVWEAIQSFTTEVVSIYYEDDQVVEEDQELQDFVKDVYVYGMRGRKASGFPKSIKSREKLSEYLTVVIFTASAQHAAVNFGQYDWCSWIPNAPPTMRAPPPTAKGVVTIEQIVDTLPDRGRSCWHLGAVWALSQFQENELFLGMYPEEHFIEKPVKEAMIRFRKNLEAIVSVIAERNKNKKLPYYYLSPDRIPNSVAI
Nature of the assay: 5-lipoxygenase inhibition by boswellic acids (stimulated neutrophil granulocytes from rat peritoneum). The assay is classed as cell-based, Ratte. The following applies: read-out: IC50-Werte für die 5-LO-Hemmung. The text has this: Mit Hilfe des Testes mit Calcium- und Ionophor-stimulierten neutrophilen Leukozyten der Ratte konnte nachgewiesen werden, daß Extrakte aus Boswellia serrata vorwiegend die Bildung von Leukotrienen blockieren, dagegen die Prostaglandinsynthese erst in wesentlich höheren Konzentrationen beeinflussen (vgl. zur Methodik: a) Messung der Leukotriene: Safayhi et al., Biochem. Pharmacology, 34:2691-2694, 1985; b) Messung der Prostaglandine: Kommerzielle Radio-Immunoassay-Kits der Firma Amersham für 6-Keto-PGF1α).
Anhand der beigefügten Zeichnungen wird die Erfindung näher erläutert. […] Methode: Safayhi et al., JPET accepted. • Fig. 4 die Elutionsprofile der durch Eisen/Ascorbat-Stimulation aus exogener Arachidonsäure im zellfreien System entstehenden oxidierten und hydroxylierten Produkte in Gegenwart steigender Konzentrationen von Acetyl-boswelliasäure (A) und Nordihydroguaiaretsäure (B). Methode: Safayhi et al., JPET accepted.

For the compound `C[C@H]1[C@H](C)CC[C@]2(C)CC[C@]3(C)C(=CC(=O)[C@@H]4[C@@]5(C)CC[C@@H](O)[C@](C)(C(=O)O)[C@@H]5CC[C@]43C)[C@H]12` [11-Keto-ß-boswelliasäure], the IC50 worked out at 5 µM. In the case of `CC(=O)O[C@@H]1CC[C@@]2(C)[C@@H](CC[C@]3(C)[C@@H]2C(=O)C=C2[C@@H]4[C@@H](C)[C@H](C)CC[C@]4(C)CC[C@]23C)[C@@]1(C)C(=O)O` [Acetyl-11-keto-ß-boswelliasäure], the IC50 is 2 µM. As to `CC(=O)O[C@@H]1CC[C@@]2(C)[C@@H](CC[C@]3(C)[C@@H]2CC=C2[C@@H]4[C@@H](C)[C@H](C)CC[C@]4(C)CC[C@]23C)[C@@]1(C)C(=O)O` [Acetyl-boswelliasäure], the half-inhibitory concentration (IC50) is 7 µM. As for `CC(=O)O[C@@H]1CC[C@@]2(C)[C@@H](CC[C@]3(C)[C@@H]2CC=C2[C@@H]4CC(C)(C)CC[C@]4(C)CC[C@]23C)[C@@]1(C)C(=O)O` [Acetyl-α-boswelliasäure], the IC50 is 7 µM. Then `C[C@H]1[C@H](C)CC[C@]2(C)CC[C@]3(C)C(=CC[C@@H]4[C@@]5(C)CC[C@@H](O)[C@](C)(C(=O)O)[C@@H]5CC[C@]43C)[C@H]12` [ß-Boswelliasäure], with 5 µM. The same measure for `CC1(C)CC[C@]2(C)CC[C@]3(C)C(=CC[C@@H]4[C@@]5(C)CC[C@@H](O)[C@](C)(C(=O)O)[C@@H]5CC[C@]43C)[C@@H]2C1` [α-Boswelliasäure]: 5 µM.

The values are drawn from patent EP0552657A1, “Use of pure Boswellic acid” (AMMON, Hermann P.T., priority 1992, dated 1993).
